Source: patent publication US7767665B2, “1,3-benzothiazinone derivatives and use thereof” (Takeda Pharmaceutical Company Limited, priority 2001, dated 2010)
Where a name gives a salt, the structure may show the parent alone.

Compound `O=c1nc(-c2cccc(Sc3ccncc3)n2)sc2ccccc12` [Example 274, 2-[6-(4-Pyridylthio)-2-pyridyl]-4H-1,3-benzothiazine-4-one] has a melting point of 245.2 to 245.8 °C. With `C[S+]([O-])c1cc(CCC(=O)O)cc(-c2nc(=O)c3ccccc3s2)n1` (stereo not drawn) [Example 344, 3-[2-(methylsulfinyl)-6-(4-oxo-4H-1,3-benzothiazin-2-yl)-4-pyridyl]propionic acid] the melting point was 265.5 to 266 °C. `Cl.O=c1nc(-c2cc(C3CCCN3)ccn2)sc2ccccc12` (stereo not drawn) gave a melting point of 219.4 to 221.4 °C. In the case of `CC(C)C(=O)NCc1cccc(-c2nc(=O)c3ccccc3s2)n1` [Example 206, 2-Methyl-N-[[6-(4-oxo-4H-1,3-benzothiazin-2-yl)-2-pyridyl]methyl]propanamide], the melting point is reported as 188.6 to 189.2 °C. With `CCOCCOc1ccc(-c2nc(=O)c3ccccc3s2)cn1` [Example 94, 2-[6-(2-Ethoxyethoxy)-3-pyridyl]-4H-1,3-benzothiazine-4-one] the melting point was 93.6 to 94.9 °C. For `O=c1nc(-c2cccc(CSc3ccncc3)n2)sc2ccccc12` [Example 273, 2-{6-[(4-pyridylthio)methyl]-2-pyridyl}-4H-1,3-benzothiazine-4-one], the melting point was 181.9 to 182.5 °C. `CC[S+]([O-])Cc1cccc(-c2nc(=O)c3ccccc3s2)n1` (stereo not drawn) [Example 250, 2-[6-[(Ethylsulfinyl)methyl]-2-pyridyl]-4H-1,3-benzothiazine-4-one] showed a melting point of 188.5 to 190 °C. `CN(C(=O)OC(C)(C)C)c1cccc(-c2nc(=O)c3ccccc3s2)n1` [Example 108, tert-Butyl methyl[6-(4-oxo-4H-1,3-benzothiazin-2-yl)-2-pyridyl]carbamate] gave a melting point of 195.6 to 196.3 °C. With `O=c1nc(-c2ccc3c(n2)CCCC3)sc2ccccc12` [Example 139, 2-(5,6,7,8-Tetrahydro-2-quinolyl)-4H-1,3-benzothiazine-4-one] the melting point was 232.3 to 232.8 °C. With `NCCCCCCNC(=O)c1cccc(-c2nc(=O)c3ccccc3s2)n1` (as salt: hydrochloride) [Example 107, N-(6-Aminohexyl)-6-(4-oxo-4H-1,3-benzothiazin-2-yl)-2-pyridinecarboxamide hydrochloride] the melting point was 95.2 to 97.6 °C. `CCN(CC)C(=O)NCCc1cccc(-c2nc(=O)c3ccccc3s2)n1` [Example 230, N,N-Diethyl-N′-[2-[6-(4-oxo-4H-1,3-benzothiazin-2-yl)-2-pyridyl]ethyl]urea] gave a melting point of 174.9 to 175.6 °C. `O=c1nc(-c2cccc(CN3CCN(c4ccc(F)cc4)CC3)n2)sc2ccccc12` [Example 265, 2-(6-{[4-(4-Fluorophenyl)-1-piperazinyl]methyl}-2-pyridyl)-4H-1,3-benzothiazine-4-one] showed a melting point of 156 to 157 °C. `O=C(O)c1ccc2c(=O)nc(-c3ccccn3)sc2c1` [Example 135, 4-Oxo-2-(2-pyridyl)-4H-1,3-benzothiazine-7-carboxylic acid] showed a melting point of 294.7 to 295.1 °C. `CS(=O)(=O)c1ccnc(-c2nc(=O)c3ccccc3s2)c1` [Example 300, 2-[4-(Methylsulfonyl)-2-pyridyl]-4H-1,3-benzothiazine-4-one] showed a melting point of 300 to 301 °C. Compound `Cc1cc(C)c2sc(-c3ccccn3)nc(=O)c2c1` [Example 24, 6,8-Dimethyl-2-(2-pyridyl)-4H-1,3-benzothiazine-4-one] has a melting point of 245 to 245.8 °C. `O=C(O)CCc1ccc(-c2nc(=O)c3ccccc3s2)nc1` [Example 328, 3-[6-(4-Oxo-4H-1,3-benzothiazin-2-yl)-3-pyridyl]propionic acid] showed a melting point of 232.2 to 232.4 °C. With `COC(=O)CS(=O)(=O)Cc1cccc(-c2nc(=O)c3ccccc3s2)n1` [Example 260, Methyl ({[6-(4-oxo-4H-1,3-benzothiazin-2-yl)-2-pyridyl]methyl}sulfonyl)acetate] the melting point was 205 to 207 °C. For `Cc1ccc2c(=O)nc(-c3cccc(CCC(=O)O)n3)sc2c1` [Example 176, 3-[6-(7-Methyl-4-oxo-4H-1,3-benzothiazin-2-yl)-2-pyridyl]propionic acid], the melting point was 221.9 to 222.5 °C. `CC(C)(C)OC(=O)CCc1cccc(-c2nc(=O)c3ccc(Cl)cc3s2)n1` [Example 5, tert-Butyl 3-[6-(7-chloro-4-oxo-4H-1,3-benzothiazin-2-yl)-2-pyridyl]propanoate] showed a melting point of 167.9 to 168.2 °C. For `Cc1cccnc1-c1nc(=O)c2ccccc2s1` [Example 8, 2-(3-Methyl-2-pyridyl)-4H-1,3-benzothiazine-4-one], the melting point was 149.9 to 151.6 °C. Work on `CSc1cc(CCC(=O)OC(C)(C)C)cc(-c2nc(=O)c3ccccc3s2)n1` [Example 341, tert-Butyl 3-[2-(methylthio)-6-(4-oxo-4H-1,3-benzothiazin-2-yl)-4-pyridyl]propanoate] yielded a melting point of 125.5 to 126.5 °C. `O=c1nc(-c2cccc(CN3CCC(c4ccccc4)CC3)n2)sc2ccccc12` [Example 267, 2-{6-[(4-Phenyl-1-piperidyl)methyl]-2-pyridyl}-4H-1,3-benzo thiazine-4-one] gave a melting point of 207 to 208 °C. `O=c1nc(-c2cccc(CNS(=O)(=O)c3ccccc3)n2)sc2ccccc12` [Example 213, N-[[6-(4-Oxo-4H-1,3-benzothiazin-2-yl)-2-pyridyl]methyl]benzenesulfonamide] gave a melting point of 206.7 to 207.5 °C. `CCc1cccc(-c2nc(=O)c3ccccc3s2)n1` [Example 140, 2-(6-Ethyl-2-pyridyl)-4H-1,3-benzothiazine-4-one] gave a melting point of 150.5 to 150.9 °C. Compound `COc1ccnc(-c2nc(=O)c3ccccc3s2)c1` [Example 25, 2-(4-Methoxy-2-pyridyl)-4H-1,3-benzothiazine-4-one] has a melting point of 214.1 to 214.6 °C. With `NC(=O)CCc1ccc(-c2nc(=O)c3ccccc3s2)nc1` [Example 329, 3-[6-(4-Oxo-4H-1,3-benzothiazin-2-yl)-3-pyridyl]propanamide] the melting point was 247.5 to 247.8 °C. Work on `CSc1cc(CCC(=O)O)cc(-c2nc(=O)c3ccccc3s2)n1` [Example 342, 3-[2-(Methylthio)-6-(4-oxo-4H-1,3-benzothiazin-2-yl)-4-pyridyl]propionic acid] yielded a melting point of 235.5 to 236.5 °C. In the case of `Cc1cc(CCC(=O)O)nc(-c2nc(=O)c3ccc(Cl)cc3s2)c1` [Example 192, 3-[6-(7-Chloro-4-oxo-4H-1,3-benzothiazin-2-yl)-4-methyl-2-pyridyl]propionic acid], the melting point is reported as 232.2 to 233.2 °C. `O=c1nc(-c2ccc(N3CCCCC3)nc2)sc2ccccc12` [Example 34, 2-[6-(1-Piperidino)-3-pyridyl]-4H-1,3-benzothiazine-4-one] gave a melting point of 191.2 to 191.7 °C. `CCOC(=O)c1cccc(-c2nc(=O)c3ccccc3s2)n1` [Example 26, Ethyl 6-(4-oxo-4H-1,3-benzothiazin-2-yl)-2-pyridinecarboxylate] showed a melting point of 170 to 172.2 °C. `CC(C)(C)OC(=O)CN1CCN(c2ccnc(-c3nc(=O)c4ccccc4s3)c2)C1=O` [Example 323, tert-Butyl [2-oxo-3-[2-(4-oxo-4H-1,3-benzothiazin-2-yl)-4-pyridyl]-1-imidazolidinyl]acetate] gave a melting point of 192.3 to 194 °C. In the case of `CCOP(=O)(CCc1ccnc(-c2nc(=O)c3ccc(Cl)cc3s2)c1)OCC`, the melting point is reported as 137.7 to 139.1 °C. In the case of `O=c1nc(-c2cccc(N3CCCCC3)n2)sc2ccccc12` [Example 42, 2-[6-(1-Piperidyl)-2-pyridyl]-4H-1,3-benzothiazine-4-one], the melting point is reported as 178.7 °C (dec.).
